A word on the pIC50: it is −log10 of the IC50, conventionally taken in molar units. Read a high pIC50 as a small IC50.

Structures are written as SMILES. pIC50: −log10 of the molar value.

For the assay, the target named is USP14 (Homo sapiens (Human), UniProt P54578). Description: Usp14 inhibition assay (Example 57B, B-series compounds). It counts as biochemical. Particulars: IC50 class; average value from a minimum of two experimental determinations. The source says: Example 57B: Usp14 Inhibition Assay
Sequence of USP14 (P54578 whole entry, looked up): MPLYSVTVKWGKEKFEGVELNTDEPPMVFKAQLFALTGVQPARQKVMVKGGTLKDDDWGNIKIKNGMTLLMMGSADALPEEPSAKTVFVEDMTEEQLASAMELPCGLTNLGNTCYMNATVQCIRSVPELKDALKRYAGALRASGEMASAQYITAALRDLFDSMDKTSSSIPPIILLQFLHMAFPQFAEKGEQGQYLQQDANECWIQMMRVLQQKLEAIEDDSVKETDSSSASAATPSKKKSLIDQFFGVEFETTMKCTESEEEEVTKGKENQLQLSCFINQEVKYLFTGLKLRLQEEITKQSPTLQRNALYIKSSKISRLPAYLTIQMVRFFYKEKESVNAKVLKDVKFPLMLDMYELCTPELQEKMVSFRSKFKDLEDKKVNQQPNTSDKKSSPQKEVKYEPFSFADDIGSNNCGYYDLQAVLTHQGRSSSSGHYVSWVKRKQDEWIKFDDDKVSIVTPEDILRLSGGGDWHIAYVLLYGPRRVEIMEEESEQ
The IC50 values in the Table below represent the average value from a minimum of two experimental determinations.
As to `Cc1c(C(=O)CN2C3CCC2[C@@H](O)C3)cc(Br)n1-c1ccc(C#N)cc1` (mixture of isomers) [Example 119B, (±)-4-(5-Bromo-3-(2-((2R)-2-hydroxy-7-azabicyclo[2.2.1]heptan-7-yl)acetyl)-2-methyl-1H-pyrrol-1-yl)benzonitrile], the pIC50 is 6.30 to 7.30.
For `Cc1c(F)c(C(=O)CN2C3CCC2[C@@H](O)C3)c(C)n1-c1ccc(C#N)c(F)c1` (mixture of isomers) [Example 120B, (±)-2-Fluoro-4-(3-fluoro-4-(2-((2R)-2-hydroxy-7-azabicyclo[2.2.1]heptan-7-yl)acetyl)-2,5-dimethyl-1H-pyrrol-1-yl)benzonitrile] the value was greater than 7.30; for `Cc1c(F)c(C(=O)CN2[C@@H]3CC[C@H]2[C@H](C)C3)c(C)n1-c1ccc(C#N)cc1` (racemic) [Example 121B, (±)-4-(3-Fluoro-2,5-dimethyl-4-(2-((1S,2R,4R)-2-methyl-7-azabicyclo[2.2.1]heptan-7-yl)acetyl)-1H-pyrrol-1-yl)benzonitrile], 6.30 to 7.30; for `Cc1cc(C(=O)CN2[C@@H]3CC[C@H]2[C@H](C)C3)c(C)n1-c1ccc(C#N)cc1` (racemic) [Example 122B, (±)-4-(2,5-Dimethyl-3-(2-((1S,2R,4R)-2-methyl-7-azabicyclo[2.2.1]heptan-7-yl)acetyl)-1H-pyrrol-1-yl)benzonitrile], 6.30 to 7.30.
Compound `Cc1nc(Cc2c(Br)c(C(=O)CN3C4CCC3[C@@H](O)C4)c(C)n2-c2ccc(C#N)cc2)cs1` (mixture of isomers) [Example 129B, (±)-4-(3-Bromo-4-(2-((2R)-2-hydroxy-7-azabicyclo[2.2.1]heptan-7-yl)acetyl)-5-methyl-2-((2-methylthiazol-4-yl)methyl)-1H-pyrrol-1-yl)benzonitrile] showed a negative logarithm of the IC50 (pIC50) of 6.30 to 7.30.
The same measure for `Cc1cc(C(=O)CN2C3CCC2[C@@H](CO)C3)c(C)n1-c1ccc(C#N)cc1` (mixture of isomers) [Example 130B, (±)-4-(3-(2-((2R)-2-(Hydroxymethyl)-7-azabicyclo[2.2.1]heptan-7-yl)acetyl)-2,5-dimethyl-1H-pyrrol-1-yl)benzonitrile]: 6.30 to 7.30; for `Cc1c(C(=O)CN2[C@@H]3CC[C@H]2[C@@H](O)C3)cc(C2CC(F)(F)C2)n1-c1ccc(C#N)cc1` (racemic) [Example 131B, (±)-4-(5-(3,3-Difluorocyclobutyl)-3-(2-((1R,2R,4S)-2-hydroxy-7-azabicyclo[2.2.1]heptan-7-yl)acetyl)-2-methyl-1H-pyrrol-1-yl)benzonitrile]: 6.30 to 7.30.
`Cc1c(C(=O)CN2C3CCC2[C@@H](O)C3)cc(C2CC(F)C2)n1-c1ccc(C#N)cc1` (mixture of isomers) [Example 132B, (±)-4-(5-(3-Fluorocyclobutyl)-3-(2-((2R)-2-hydroxy-7-azabicyclo[2.2.1]heptan-7-yl)acetyl)-2-methyl-1H-pyrrol-1-yl)benzonitrile]: the pIC50 is greater than 7.30.
In the case of `Cc1c(C(=O)CN2[C@@H]3CC[C@H]2[C@@H](O)C3)cc(CC2CCC2)n1-c1ccc(C#N)cc1` (racemic) [Example 133B, (±)-4-(5-(Cyclobutylmethyl)-3-(2-((1R,2R,4S)-2-hydroxy-7-azabicyclo[2.2.1]heptan-7-yl)acetyl)-2-methyl-1H-pyrrol-1-yl)benzonitrile], the pIC50 was greater than 7.30.
For `Cc1c(C(=O)CN2[C@@H]3CC[C@H]2[C@@H](O)C3)cc(CC2CC(C)(C)C2)n1-c1ccc(C#N)cc1` (racemic) [Example 134B, (±)-4-(5-((3,3-Dimethylcyclobutyl)methyl)-3-(2-((1R,2R,4S)-2-hydroxy-7-azabicyclo[2.2.1]heptan-7-yl)acetyl)-2-methyl-1H-pyrrol-1-yl)benzonitrile] the value was greater than 7.30; for `Cc1c(C(=O)CN2C3CCC2[C@@H](O)C3)cc(CC2CC(F)(F)C2)n1-c1ccc(C#N)cc1` (mixture of isomers) [Example 135B, (±)-4-(5-((3,3-Difluorocyclobutyl)methyl)-3-(2-((2R)-2-hydroxy-7-azabicyclo[2.2.1]heptan-7-yl)acetyl)-2-methyl-1H-pyrrol-1-yl)benzonitrile], greater than 7.30; for `Cc1c(C(=O)CN2[C@@H]3CC[C@H]2[C@@H](C)C3)cc(C#N)n1-c1ccc(C#N)cc1` (racemic) [Example 136B, (±)-1-(4-Cyanophenyl)-5-methyl-4-(2-((1R,2R,4S)-2-methyl-7-azabicyclo[2.2.1]heptan-7-yl)acetyl)-1H-pyrrole-2-carbonitrile], greater than 7.30.
The compound `Cc1cc(C(=O)CN2[C@@H]3CC[C@H]2[C@H]2CCO[C@H]23)c(C)n1-c1ccc(C#N)cc1` (racemic) [Example 139B, (±)-4-(2,5-Dimethyl-3-(2-((3aR,4S,7R,7aR)-octahydro-4,7-epiminobenzofuran-8-yl)acetyl)-1H-pyrrol-1-yl)benzonitrile] showed a pIC50 of less than 6.30.
For `Cc1cc(C(=O)CN2[C@@H]3CC[C@H]2[C@@H](C)[C@@H]3C)c(C)n1-c1ccc(C#N)cc1` (racemic) [Example 140B, (±)-4-(3-(2-((1R,2R,3R,4S)-2,3-Dimethyl-7-azabicyclo[2.2.1]heptan-7-yl)acetyl)-2,5-dimethyl-1H-pyrrol-1-yl)benzonitrile] the value was 6.30 to 7.30.
For `Cc1cc(C(=O)CN2[C@@H]3C=C(C(F)(F)F)[C@H]2CC3)c(C)n1-c1ccc(C#N)cc1` (racemic) [Example 141B, (±)-4-(2,5-Dimethyl-3-(2-((1R,4S)-2-(trifluoromethyl)-7-azabicyclo[2.2.1]hept-2-en-7-yl)acetyl)-1H-pyrrol-1-yl)benzonitrile], the pIC50 was less than 6.30.
Consider `Cc1c(C(=O)CN2C3CCC2C(O)C3)cc([C@@H]2C[C@H]2C)n1-c1ccc(C#N)cc1` (mixture of isomers) [Example 142B, (±)-4-(3-(2-((1S,2R,4R)-2-Hydroxy-7-azabicyclo[2.2.1]heptan-7-yl)acetyl)-2-methyl-5-(2-methylcyclopropyl)-1H-pyrrol-1-yl)benzonitrile], for which the negative-log IC50 (pIC50) is 6.30 to 7.30.
For `Cc1cc(C(=O)CN2C3CCC2(C(C)O)CC3)c(C)n1-c1ccc(C#N)cc1` (racemic) [Example 143B, (±)-4-(3-(2-(1-((R)-1-Hydroxyethyl)-7-azabicyclo[2.2.1]heptan-7-yl)acetyl)-2,5-dimethyl-1H-pyrrol-1-yl)benzonitrile] the value was 6.30 to 7.30; for `Cc1nc(-c2cc(C(=O)CN3[C@@H]4CC[C@H]3[C@@H](O)C4)c(C)n2-c2ccc(C#N)cc2)cs1` (racemic) [Example 144B, (±)-4-(3-(2-((1R,2R,4S)-2-Hydroxy-7-azabicyclo[2.2.1]heptan-7-yl)acetyl)-2-methyl-5-(2-methylthiazol-4-yl)-1H-pyrrol-1-yl)benzonitrile], 6.30 to 7.30; for `Cc1c(C(=O)CN2[C@@H]3CC[C@H]2[C@@H](O)C3)cc(-c2csc(C(F)(F)F)n2)n1-c1ccc(C#N)cc1` (racemic) [Example 145B, (±)-4-(3-(2-((1R,2R,4S)-2-Hydroxy-7-azabicyclo[2.2.1]heptan-7-yl)acetyl)-2-methyl-5-(2-(trifluoromethyl)thiazol-4-yl)-1H-pyrrol-1-yl)benzonitrile], less than 6.30.
For `Cc1c(C(=O)CN2[C@@H]3CC[C@H]2[C@@H](O)C3)cc(-c2nccs2)n1-c1ccc(C#N)cc1` (racemic) [Example 146B, (±)-4-(3-(2-((1R,2R,4S)-2-Hydroxy-7-azabicyclo[2.2.1]heptan-7-yl)acetyl)-2-methyl-5-(thiazol-2-yl)-1H-pyrrol-1-yl)benzonitrile] the value was less than 6.30.
The same measure for `Cc1ncc(-c2cc(C(=O)CN3[C@@H]4CC[C@H]3[C@@H](O)C4)c(C)n2-c2ccc(C#N)cc2)s1` (racemic) [Example 147B, (±)-4-(3-(2-((1R,2R,4S)-2-Hydroxy-7-azabicyclo[2.2.1]heptan-7-yl)acetyl)-2-methyl-5-(2-methylthiazol-5-yl)-1H-pyrrol-1-yl)benzonitrile]: 6.30 to 7.30; for `Cc1cc(C(=O)CN2C3CCC2[C@@H](CC(C)(C)O)C3)c(C)n1-c1ccc(C#N)cc1` (mixture of isomers) [Example 148B, (±)-4-(3-(2-((2S)-2-(2-Hydroxy-2-methylpropyl)-7-azabicyclo[2.2.1]heptan-7-yl)acetyl)-2,5-dimethyl-1H-pyrrol-1-yl)benzonitrile]: less than 6.30; for `Cc1c(F)c(C(=O)CN2[C@@H]3C=C(C(F)(F)F)[C@H]2CC3)c(C)n1-c1ccc(C#N)cc1` (racemic) [Example 149B, (±)-4-(3-Fluoro-2,5-dimethyl-4-(2-((1R,4S)-2-(trifluoromethyl)-7-azabicyclo[2.2.1]hept-2-en-7-yl)acetyl)-1H-pyrrol-1-yl)benzonitrile]: 6.30 to 7.30.
With `Cc1c(C(=O)CN2C3CCC2C(O)C3)cc([C@@H](C)C2CCC2)n1-c1ccc(C#N)cc1` (mixture of isomers) [Example 150B, (±)-4-(5-((S)-1-Cyclobutylethyl)-3-(2-((2R)-2-hydroxy-7-azabicyclo[2.2.1]heptan-7-yl)acetyl)-2-methyl-1H-pyrrol-1-yl)benzonitrile], the pIC50 is 6.30 to 7.30.
For `Cc1c(C(=O)CN2C3CCC2[C@@H](O)C3)cc(/C=C/CN2C(=O)c3ccccc3C2=O)n1-c1ccc(C#N)cc1` (mixture of isomers) [Example 153B, (±)-4-(5-0E)-3-(1,3-Dioxoisoindolin-2-yl)prop-1-en-1-yl)-3-(2-((1R,2R,4S)-2-hydroxy-7-azabicyclo[2.2.1]heptan-7-yl)acetyl)-2-methyl-1H-pyrrol-1-yl)benzonitrile] the value was greater than 7.30; for `Cc1c(C(=O)CN2C3CCC2[C@@H](O)C3)cc(CCCOC(F)(F)F)n1-c1ccc(C#N)cc1` (mixture of isomers) [Example 155B, (±)-4-(3-(2-((1R,2R,4R)-2-Hydroxy-7-azabicyclo[2.2.1]heptan-7-yl(acetyl)-2-methyl-5-(3-(trifluoromethoxy)propyl)-1H-pyrrol-1-yl)benzonitrile], 6.30 to 7.30.
The same measure for `Cc1c(C(=O)CN2[C@@H]3CC[C@@H]2[C@@H](O)C3)cc(/C=C/CN)n1-c1ccc(C#N)cc1` (racemic) [Example 156B, (±)-4-(5-((E)-3-Aminoprop-1-en-1-yl)-3-(2-((1S,2R,4S)-2-hydroxy-7-azabicyclo[2.2.1]heptan-7-yl)acetyl)-2-methyl-1H-pyrrol-1-yl)benzonitrile]: greater than 7.30.
